Results on four molecules are retold here after patent US20250352490A1, “P-SELECTIN TARGETED NANOPARTICLES AND USES THEREOF” (Ramot at Tel-Aviv University Ltd., priority 2023, published 2025).

Structures are written as SMILES. Where two headings read alike, the source gives them in different places.

One series relates to D4M.3A cells. Kind of series: Proliferation assay (cell count after 72 h), D4M.3A. The series is classed as cell-based, murine. The conditions noted are these: Mus musculus, read-out: IC50 values. The protocol: (§1) Cell culture: Murine primary melanoma […].3A cells were obtained from Dartmouth College, Hanover. […].3A cells were cultured in Advanced DMEM growth media supplemented with 5% FBS, 100 μg/mL streptomycin, 100 IU/mL penicillin, 12.5 IU/mL nystatin, and 1% GlutaMAXTM (Gibco, Waltham, MA, USA). Human metastatic melanoma 131/4-5B1 cells were obtained from University of Toronto, Canada, and were cultured in RPMI 1640 medium supplemented with 10% FBS, 100 μg/mL streptomycin, 100 IU/mL penicillin, 12.5 IU/mL nystatin, and 2 mM L-Glutamine (Biological Industries Ltd, Kibbutz Beit Haemek, Israel). Human primary melanoma A375 cells were obtained from ATCC and were cultured in RPMI 1640 medium supplemented with 10% FBS, 100 μg/mL streptomycin, 100 IU/mL penicillin, 12.5 IU/mL nystatin, and 2 mM L-Glutamine. […] Following 72 hours incubation, the cells were counted using a Z1 Coulter Counter (Beckman Coulter). […] Isobolograns and combination index: The interactions between DBF and TRM were evaluated by constructing isobolograms for different drugs ratios and calculating their combination index (CI).^51 First, the inhibitory concentration (IC) values of treatment with DBF, TRM, and their combinations were calculated from the proliferation assays. […]

For a further series, the system named is A375 cells. In words: Proliferation assay (cell count after 72 h), A375. The series is classed as cell-based. Particulars: Homo sapiens, read-out: IC50 values. The protocol:
as §1

Another series concerns melanoma patients. The conditions noted are these: cited from earlier work.
For series [1] the following is noted: in vivo; cited from earlier work.
The next series deals with pERK and ki67 in tumors. Particulars: 30 mg/kg DBF daily, cited from earlier work.
In series [2] the test system is PD-L1 expression in EMT6 cells. In words: PD-L1 expression in EMT6 cells by flow cytometry. In kind it is cell-based, murine. The protocol: PD-L1 expression after treatments with talazoparib: EMT6 murine mammary carcinoma cells (obtained from ATCC) were incubated with talazoparib (0.1 nM, 10 nM, and 100 nM) for 24-72 hours and then harvested using FACS buffer (protein levels). 1×10^6 cells were incubated with anti-PD-L1 at 1 μg/ml antibody concentration (Mouse PD-L1/B7-H1 Alexa Fluor® 647-conjugated Antibody; R & D Systems #FAB90781R) or isotype antibody (Rabbit IgG Alexa Fluor®647-conjugated Antibody, R & D Systems #IC1051R) for 1 hour on ice. The cells were washed twice with FACS buffer and the fluorescence intensity was measured by Attune NxT Flow Cytometer and analyzed by Kaluza software. All treatments were compared to the secondary antibody only or to the corresponding isotype control.
PD-L1i blocking activity: In order to assess the PD-L1i small molecule inhibition activity, murine EMT6 cells were seeded in 24-well plate (2×10^4 cells/well). After 24 hours, the medium was replaced with medium containing PD-L1i (SM56; [Acúrcio et al. Journal for ImmunoTherapy of Cancer, 10(7), e004695 (2022)]) for 24-72 hours. The cells were then harvested with FACS buffer, washed and resuspended in FACS buffer. EMT6 cells (1×10^6) were incubated with anti-PD-L1 at 1 μg/ml antibody concentration (Mouse PD-L1/B7-H1 Alexa Fluor®647-conjugated Antibody; R & D Systems #FAB90781R) or isotype antibody (Rabbit IgG Alexa Fluor®647-conjugated Antibody, R & D Systems #IC1051R) for 1 hour on ice. Additionally, to evaluate synergistic activity of PD-L1i with talazoparib, EMT6 cells were treated with the combination of PD-L1i and talazoparib for 48 hours. Later, same antibody and incubation conditions described previously were followed. These experiments were reproduced trice, and the data represent the mean±SD.
Background: A flow cytometer gives signals particle by particle.

The next series has as its system EMT6 cells. In words: Proliferation assay, EMT6. The series is classed as cell-based, murine. Particulars: Mus musculus. The procedure:
(§2) Human MDA-MB-231 and MDA-MB-436, and murine 4T1 and EMT6 cells were obtained from the ATCC. EMT6, MDA-MB-231 and MDA-MB-436 cells were cultured in DMEM supplemented with 10% FBS, 100 IU/mL penicillin, 100 μg/mL streptomycin, 12.5 U/mL Nystatin, 2 mM L-glutamine. 4T1 cells were cultured in RPMI supplemented with 10% FBS, 100 IU/mL Penicillin, 100 μg/mL Streptomycin, 12.5 U/mL Nystatin, 2 mM L-glutamine, 1 mM sodium pyruvate and 10 mM HEPES Buffer. For MDA-MB-436, MDA-MB-23, 4T1 and EMT6, cells were seeded in 24-well plates (2.5×10^4, 2.5×10^4, 1×10^4, 2×10^3 cells/well, respectively) and incubated for 24 hours. Then, the cultured medium was replaced with a medium containing a serial dilution of talazoparib, talazoparib-loaded NPs or blank NPs (carrier only) for additional 72 hours. Untreated (control) cells were supplemented with fresh medium containing 0.1% DMSO. The cells were counted using a Z1 Coulter Counter (Beckman Coulter). Each treatment was assayed in triplicates, N=3.

The next series has as its system MDA-MB-436 cells. Kind of series: Proliferation assay, MDA-MB-436. The series is classed as cell-based. Particulars: Homo sapiens; MDA-MB-436 (BRCA-mutated), 72 hours. The protocol:
as §2

For another series, the system named is 4T1 cells. Kind of series: Proliferation assay, 4T1. In kind it is cell-based, murine. Particulars: Mus musculus; 4T1 (BRCA wild-type), 72 hours. The procedure:
as §2

In the next series the test system is MDA-MB-231 cells. In words: Proliferation assay, MDA-MB-231. The series is classed as cell-based. The conditions noted are these: Homo sapiens; MDA-MB-231 (BRCA wild-type), 72 hours. The procedure:
as §2

Series [3] concerns mCherry-labeled EMT6 3D spheroids. Kind of series: mCherry-labeled EMT6 3D spheroids sprouting. In kind it is cell-based, murine. The conditions noted are these: Mus musculus, compared to the control. The procedure: Analysis of mCherry-labeled EMT6 3D spheroids sprouting: 3D spheroid of EMT6 cells (2000 cells/spheroid) were prepared in DMEM medium supplemented with 0.24 w/v % methyl cellulose. The cells were deposited in 25 μL droplets into the inner side of a 20 mm dish and incubated for 48 hours at 37° C. when the plate is facing upside down to allow for spheroid formation. The spheroids were then embedded in Matrigel®, seeded in a 96-well plate, and monitored for cell invasion into the Matrigel®. The 3D spheroids were treated with talazoparib (1 nM, 100 nM and 1 μM) and their sprouting in the Matrigel® was evaluated by measuring the % red area with ImageJ software.

The subject of series [4] is PD-L1 localizations in EMT6 cells. In words: dSTORM imaging of PD-L1 in EMT6 cells. In kind it is cell-based, murine. Particulars: increasing concentrations, 48 hours. The procedure: dSTORM imaging of PD-L1 after exposure of EMT6 cells to talazoparib: EMT6 cells were seeded in Ibidi μ-slide 8 well glass bottom chambered coverslips at a density of 5000 cells per well. After 24 hours incubation, cells were treated with Talazoparib for 48 hours ([…]). After 48 hours cells were washed 1× with PBS and fixed using 3.7% formaldehyde solution for 10 minutes at room temperature. After fixation, cells were washed trice with PBS and incubated with 5% BSA solution overnight at 4° C. […] Between 6 and 10 cells were imaged for each condition. dSTORM images were analyzed with the Nikon NIS elements software (version 5.21.01). dSTORM localizations were detected using Gaussian fitting, with a minimum intensity threshold height of 150 for the 647 nm channel. Molecules detected in 5 consecutive frames were considered as a single blinking event, while molecules detected in more than 5 frames were discarded. […] The resulting x-y coordinates of the detected localizations were imported and run through a custom MATLAB scrip to quantify the localization density per cell. Each cell was manually selected by drawing an ROI around the cell contour (detected in the 488 channel). […]

A further series deals with PD-L1 RNA in EMT6 cells. Kind of series: PD-L1 mRNA in EMT6 cells by q-Real time PCR. Particulars: 10 nM, 24-72 hours. In kind it is cell-based, murine. The protocol:
q-Real time PCR: Total RNA was isolated from cultured cells using the Direct-zol RNA Miniprep Plus (Zymo Research), according to the manufacturer's instructions. Once isolated, one microgram of RNA was reverse transcribed to cDNA using qScript cDNA synthesis kit (Quantabio, MA, USA). The cDNA was further diluted (1:50 in DNase/RNase-Free Water) for the qPCR. PD-L1 mRNA levels were assessed by SYBR green real-time PCR (StepOne plus; Thermo Fisher Scientific, Waltham, MA, USA) using PerFecTa SYBR Green FastMix ROX (Quanta BioSciences) and the following custom primers: murine PD-L1: forward, 5′-[…]-3′, reverse, 5′-[…]-3′. GAPDH: forward, 5′-ATTCCACCCATGGAATTC-3′, reverse, 5′-[…]-′3.

By IC50 is commonly meant the midpoint of a concentration-inhibition curve. With `CC(C)(C)c1nc(-c2cccc(NS(=O)(=O)c3c(F)cccc3F)c2F)c(-c2ccnc(N)n2)s1` [DBF, dabrafenib], the IC50 with D4M.3A cells (72 h) was 4.9 nM. The half-inhibitory concentration (IC50) in the series with A375 cells (A-375, 72 h) was determined as 13.6 nM. In addition, in the series on melanoma patients, the “Overall survival (OS)” value is reported as 18.7 months and the “Progression-free survival (PFS)” value is on record as 8.8 months. Moreover, the “Steady-state brain to plasma concentration ratio” value in series [1] is reported as 0.019±0.02. In the series with pERK and ki67 in tumors (6 hours post-final dose), the “Inhibition of pERK in tumors” value is 89% and the “Reduction in ki67 in tumors” value was 28%. The “Duration of pERK reduction in tumors post-dose” value in the series on pERK and ki67 in tumors is reported as “up to 18 hours”.

Take `O=C1c2ccccc2C(=O)N1CNc1ccc(Oc2ccc(Cl)cc2)cc1` [SM56]: in series [2] (10 μM PD-L1i alone, 48 hours), the “Reduction of PD-L1 expression compared to untreated cells” value is given as “about 40%”. The “PD-L1 expression over time” value in series [2] (10 μM, 24-72 hours) was “reduction in PD-L1 expression in a time-dependent manner”.

Consider `CC(=O)Nc1cccc(-n2c(=O)n(C3CC3)c(=O)c3c(Nc4ccc(I)cc4F)n(C)c(=O)c(C)c32)c1` [TRM, trametinib], for which the IC50 amounted to 8.6 nM in the series with D4M.3A cells (D4M.3A, 72 hours) and 8.5 nM with A375 cells (A-375, A375, 72 hours). In addition, in [1], the “Steady-state brain to plasma concentration ratio” value was 0.03±0.01.

For orientation: inhibition means the change of the read-out against control, counted positive when it falls. Turning to `Cn1ncnc1[C@H]1c2n[nH]c(=O)c3cc(F)cc(c23)N[C@@H]1c1ccc(F)cc1` [talazoparib], the IC50 was 10 nM with EMT6 cells (EMT6 (BRCA-mutated), 72 hours); 8 nM in the series on EMT6 cells (EMT6 proliferation, NPs versus free drug (FIG. 32)); 2 nM in the series on MDA-MB-436 cells; 58 nM in the series with 4T1 cells; 411 nM with MDA-MB-231 cells. The inhibition at 1 µM in series [3] was 70%. Further, the “PD-L1 expression relative to untreated cells” value in series [2] (10 nM talazoparib and/or 10 μM PD-L1i, 48 hours) came out at 3 folds. For the same molecule, the PD-L1 protein expression result is given as “time-dependent increase in PD-L1 expression” in series [2] (10 nM, 24-72 hours) and “induced PD-L1 expression in EMT6 cells in a dose-dependent manner” in series [2] (increasing concentrations, 72 hours). Also, the “PD-L1 localizations and protein density (dSTORM)” value in series [4] was “increased number of PD-L1 localizations and higher PD-L1 protein density”. In the series on PD-L1 RNA in EMT6 cells, the “PD-L1 RNA level” value is recorded as “time-dependent increase in PD-L1 expression”.
